Data taken from ChEMBL document CHEMBL1153143, “Structure-based design, synthesis and biological evaluation of new N-carboxyphenylpyrrole derivatives as HIV fusion inhibitors targeting gp41” (Bioorg Med Chem Lett, 2010).

What was measured:
[1] = test system: Human immunodeficiency virus 1; assay: Antiviral activity against HIV1 3B in human MT2 cells assessed as inhibition of p24 antigen level after 4 days by ELISA; type: functional, organism-based; conditions: Human immunodeficiency virus 1, 3B, MT2, 96 h
[2] = Inhibition of HIV1 3B gp41 six-helix bundle formation after 30 mins by native-polyacrylamide gel electrophoresis; parameters: species or system Human immunodeficiency virus 1
[3] = test system: MT2; assay: Cytotoxicity against human MT2 cells after 4 days by XTT assay; type: cell-based; conditions: mt2, 96 h
[4] = test system: Human immunodeficiency virus 1; assay: Antiviral activity against HIV1 3B in human MT2 cells assessed as reduction of virus-induced cytopathogenicity; type: functional, organism-based; conditions: Human immunodeficiency virus 1, 3B
[5] = Selectivity index, ratio of CC50 for human MT2 cells to EC50 for HIV1 3B; type: toxicity, cell-based; conditions: read-out: Ratio CC50/IC50
[6] = test system: Human immunodeficiency virus 1; assay: Antiviral activity against HIV1 3B in human MT2 cells assessed as inhibition of cell-cell fusion; type: functional, organism-based; conditions: Human immunodeficiency virus 1, 3B

Structure (SMILES): Cc1ccc(C)n1-c1ccc(O)c(C(=O)O)c1
- IC50 [1]: 28.2 µM
- IC50 [2]: 29.4 µM
- CC50 [3]: 334 µM
- IC50 [4]: 55.5 µM
- selectivity ratio [5]: 11.8
- IC50 [6]: 43.2 µM

Structure (SMILES): Cc1ccc(C)n1-c1ccc(-c2ccc(CCC(=O)O)cc2)c(C(=O)O)c1
- IC50 [1]: 8.3 µM
- IC50 [2]: 21.8 µM
- CC50 [3]: 227 µM
- IC50 [4]: 13.1 µM
- selectivity ratio [5]: 27.4
- IC50 [6]: 8.3 µM

Structure (SMILES): Cc1ccc(C)n1-c1ccc(-c2ccccc2)c(C(=O)O)c1
- IC50 [1]: 17.8 µM
- IC50 [2]: 29 µM
- CC50 [3]: 290 µM
- IC50 [4]: 37.9 µM
- selectivity ratio [5]: 16.3
- IC50 [6]: 59.2 µM

Structure (SMILES): Cc1ccc(C)n1-c1ccc(-c2ccc(C(=O)O)cc2)c(C(=O)O)c1
- IC50 [1]: 25.6 µM
- IC50 [2]: 20.5 µM
- CC50 [3]: 355 µM
- IC50 [4]: 33.9 µM
- selectivity ratio [5]: 13.8
- IC50 [6]: 26 µM

Structure (SMILES): Cc1ccc(C)n1-c1ccc(-c2ccc(/C=C/C(=O)O)cc2)c(C(=O)O)c1
- IC50 [1]: 4.91 µM
- IC50 [2]: 20.7 µM
- CC50 [3]: 255 µM
- IC50 [4]: 7.71 µM
- IC50 [6]: 3.6 µM

Structure (SMILES): Cc1ccc(-c2ccc(-n3c(C)ccc3C)cc2C(=O)O)cc1
- IC50 [1]: 18.2 µM
- IC50 [2]: 21.3 µM
- CC50 [3]: 280 µM
- IC50 [4]: 79.5 µM
- selectivity ratio [5]: 15.4
- IC50 [6]: 51.6 µM
